# Experimental data taken from PubChem BioAssay (NCI).
#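 Tested at 5 concentrations; 48 h exposure; 96-well plates; endpoints linearly interpolated, else capped at highest concentration. Abbreviation: GI50, concentration required for 50% inhibition of growth. The concentration for full growth arrest is given as TGI.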
# Assays:
# Assay in all cases: NCI anticancer screen, dose series, 48 h
# RXF 393 renal = system: RXF 393 renal
# CAKI-1 renal = system: CAKI-1 renal
# SK-OV-3 ovarian = system: SK-OV-3 ovarian
# SW-620 colon = system: SW-620 colon
# NCI-H460 lung = system: NCI-H460 lung
# MOLT-4 leukemia = system: MOLT-4 leukemia
# CCRF-CEM leukemia = system: CCRF-CEM leukemia
# DU-145 prostate = system: DU-145 prostate
# MDA-MB-231 breast = system: MDA-MB-231 breast
# SR leukemia = system: SR leukemia
Compound,TGI (RXF 393 renal),TGI (CAKI-1 renal),TGI (SK-OV-3 ovarian),TGI (SW-620 colon),TGI (NCI-H460 lung),TGI (MOLT-4 leukemia),TGI (CCRF-CEM leukemia),GI50 (RXF 393 renal),GI50 (SK-OV-3 ovarian),GI50 (SW-620 colon),GI50 (NCI-H460 lung),GI50 (MOLT-4 leukemia),GI50 (CCRF-CEM leukemia),GI50 (DU-145 prostate),TGI (DU-145 prostate),GI50 (MDA-MB-231 breast),TGI (MDA-MB-231 breast),TGI (SR leukemia),GI50 (SR leukemia),GI50 (CAKI-1 renal)
Cc1nc(Nc2ccc(Cl)cc2)sc1C(=O)NNc1ccc([N+](=O)[O-])cc1[N+](=O)[O-],30.7 µM,44.1 µM,52.3 µM,43.5 µM,34.7 µM,46.7 µM,52.3 µM,,,,,,,,,,,,,
CN(C)CCCNC(=O)c1cc(NC(=O)c2cc(NC(=O)CCc3c[nH]c4ccccc34)cn2C)cn1C,> 100 µM,,> 100 µM,> 100 µM,> 100 µM,> 100 µM,> 100 µM,> 100 µM,> 100 µM,> 100 µM,> 100 µM,> 100 µM,> 100 µM,> 100 µM,> 100 µM,> 100 µM,> 100 µM,,,
COc1ccc(-c2cc(=O)c3ccc(C)nc3[nH]2)cc1,> 100 µM,> 100 µM,> 100 µM,> 100 µM,> 100 µM,> 100 µM,> 100 µM,,,,> 100 µM,,,,> 100 µM,,> 100 µM,,,
Cc1[nH]c2ccccc2c1C(=O)CC1(O)C(=O)Nc2ccccc21 (stereo unspecified),> 100 µM,> 100 µM,> 100 µM,> 100 µM,> 100 µM,> 100 µM,> 100 µM,,,,,,,,,,,> 100 µM,,
COC(=O)c1c2c(c[n+]([O-])c1C)C(=O)C=CC2=O,,3.16 µM,51.1 µM,5.36 µM,28 µM,6.21 µM,6.57 µM,,19.3 µM,2.08 µM,12.8 µM,2.43 µM,2.5 µM,1.85 µM,3.54 µM,2.01 µM,5.46 µM,> 100 µM,2.72 µM,1.7 µM
c1cc(N(CCn2cccn2)CCn2cccn2)cc(N(CCn2cccn2)CCn2cccn2)c1,> 100 µM,> 100 µM,> 100 µM,> 100 µM,> 100 µM,> 100 µM,> 100 µM,,,,,,,,,,,> 100 µM,,
CC(=O)[CH-]C(C)=O.CC(=O)[CH-]C(C)=O.[CH2-]CCC.[CH2-]CCC.[Sn+4],0.292 µM,0.874 µM,3.09 µM,0.375 µM,2.9 µM,> 100 µM,,0.0699 µM,1.69 µM,0.148 µM,1.39 µM,0.37 µM,0.0483 µM,,,,,> 100 µM,0.382 µM,0.151 µM
CC(C)CC(NC(=O)c1cccc(O)c1O)C(=O)NCc1cc(CNC(=O)C(CC(C)C)NC(=O)c2cccc(O)c2O)cc(CNC(=O)C(CC(C)C)NC(=O)c2cccc(O)c2O)c1 (stereo unspecified),,> 100 µM,35.5 µM,61.8 µM,> 100 µM,37.9 µM,54 µM,,,,,,,,,,,32.2 µM,,
CC(C)=CC(=O)C/C(=N\NC(N)=S)C(=O)Nc1ccc(Cl)cc1,> 100 µM,> 100 µM,> 100 µM,> 100 µM,> 100 µM,> 100 µM,> 100 µM,,,,,,,,,,,,,
